From article PMC9997933, “Anticancer derivative of the natural alkaloid, theobromine, inhibiting EGFR protein: Computer-aided drug discovery approach” (PLOS ONE, 2023)

Biological target: EGFR (Homo sapiens, UniProt P00533)
Assay: in vitro EGFR inhibition, Human EGFR ELISA kit
Format: biochemical

Sequence of EGFR (P00533 25-1210): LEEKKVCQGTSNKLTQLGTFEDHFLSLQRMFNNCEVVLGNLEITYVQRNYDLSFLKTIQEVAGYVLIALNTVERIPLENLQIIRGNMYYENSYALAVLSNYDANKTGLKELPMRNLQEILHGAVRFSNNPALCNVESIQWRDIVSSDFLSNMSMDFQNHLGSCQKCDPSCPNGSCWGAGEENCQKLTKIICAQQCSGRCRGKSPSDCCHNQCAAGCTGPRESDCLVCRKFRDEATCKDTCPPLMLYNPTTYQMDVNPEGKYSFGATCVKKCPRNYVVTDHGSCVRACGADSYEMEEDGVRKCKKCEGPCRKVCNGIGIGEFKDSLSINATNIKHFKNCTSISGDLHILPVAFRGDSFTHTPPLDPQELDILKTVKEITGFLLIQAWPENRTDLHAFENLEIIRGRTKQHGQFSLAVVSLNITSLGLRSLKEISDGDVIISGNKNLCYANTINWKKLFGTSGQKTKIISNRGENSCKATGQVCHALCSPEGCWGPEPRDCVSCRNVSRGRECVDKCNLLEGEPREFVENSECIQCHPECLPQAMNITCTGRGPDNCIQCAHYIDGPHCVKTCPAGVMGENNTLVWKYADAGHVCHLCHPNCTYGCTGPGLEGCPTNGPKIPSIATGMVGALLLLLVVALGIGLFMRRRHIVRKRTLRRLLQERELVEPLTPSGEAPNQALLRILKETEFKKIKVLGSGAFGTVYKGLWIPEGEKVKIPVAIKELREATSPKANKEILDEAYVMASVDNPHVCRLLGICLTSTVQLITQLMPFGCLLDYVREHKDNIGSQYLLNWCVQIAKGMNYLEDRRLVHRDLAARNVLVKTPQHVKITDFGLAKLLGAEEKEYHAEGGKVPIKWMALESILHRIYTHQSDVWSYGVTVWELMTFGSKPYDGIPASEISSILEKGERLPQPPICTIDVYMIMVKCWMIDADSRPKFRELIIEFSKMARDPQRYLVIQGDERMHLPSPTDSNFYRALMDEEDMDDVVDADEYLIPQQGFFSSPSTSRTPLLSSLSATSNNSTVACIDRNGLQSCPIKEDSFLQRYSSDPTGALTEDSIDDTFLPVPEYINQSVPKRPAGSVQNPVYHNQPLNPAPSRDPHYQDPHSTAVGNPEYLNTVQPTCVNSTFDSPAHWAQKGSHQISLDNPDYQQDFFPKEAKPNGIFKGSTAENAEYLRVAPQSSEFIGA

- IC50: 22.9 nM
Structure (SMILES): Cc1cccc(NC(=O)Cn2c(=O)c3c(ncn3C)n(C)c2=O)c1 [T-1-MTA]
